In patent US4921850A, “3-propenylcephem derivative” (Eisai Co., Ltd., priority 1986, dated 1990):
Values after ≈ are worked out from the molar mass of the structure shown. Like-named read-outs stand apart in the source and are kept apart here.

Experiments:
in vivo = conditions: read-out: values of acute toxicity
Text: (1) Acute toxicity in mouse:
The compounds according to this invention dissolved in a physiological saline solution were intravenously dosed to five ICR male 6 weeks-old mouse.

Kleb. pneumoniae EK-6 = assay: Anti-bacterial activity (MIC), agar dilution; format: cell-based
Summary of the method: (§1)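 Overnight Mueller-Hinton broth cultures were diluted to about 10^6 CFU/ml and spotted onto Mueller-Hinton agar plates carrying twofold serial dilutions of antibiotic. After 18 hours at 37° C, MIC (μg/ml) was determined by agar dilution.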

Ser. marcescens ES-75 = assay: Anti-bacterial activity (MIC), agar dilution; format: cell-based; conditions: Ser. marcescens ES-75, agar dilution, about 10^6 CFU/ml, 18 hours, 37° C.
Summary of the method: as §1

Escher. coli NIHJ = assay: Anti-bacterial activity (MIC), agar dilution; format: cell-based; conditions: Escher. coli NIHJ, agar dilution, about 10^6 CFU/ml, 18 hours, 37° C.
Summary of the method: as §1

[1] = test system: Morganella morganii EP-14; assay: Anti-bacterial activity (MIC), agar dilution; format: cell-based; conditions: about 10^6 CFU/ml, 37° C.
Summary of the method: as §1

Pseud. aeruginosa EP-01 = assay: Anti-bacterial activity (MIC), agar dilution; format: cell-based; conditions: Pseud. aeruginosa EP-01, agar dilution, about 10^6 CFU/ml, 18 hours, 37° C.
Summary of the method: as §1

Staph. aureus 209-P = assay: Anti-bacterial activity (MIC), agar dilution; format: cell-based; conditions: Staph. aureus 209-P, agar dilution, about 10^6 CFU/ml, 18 hours, 37° C.
Summary of the method: as §1

[2] = intravenous, physiological saline solution, five ICR male 6 weeks-old mouse
[3] = Klebsiella pneumoniae, EK6, 18 h, Kleb. pneumoniae EK-6, agar dilution, about 10^6 CFU/ml, 18 hours, 37° C., read-out: MIC
[4] = Serratia marcescens, ES75, 18 h, read-out: MIC
[5] = Escherichia coli, 18 h, read-out: MIC
[6] = Morganella morganii, EP14, 18 h, read-out: MIC
[7] = Pseudomonas aeruginosa, EP01, 18 h, read-out: MIC
[8] = Staphylococcus aureus, 209P, 18 h, read-out: MIC

Nc1nc(/C(=N/OCF)C(=O)N[C@@H]2C(=O)N3C(C(=O)[O-])=C(/C=C/C[N+]4(CCO)C[C@H](O)C[C@H]4CO)CS[C@H]23)ns1 (single isomer, unassigned) [Example 7-2, 7β-[2-(5-Amino-1,2,4-thiadiazol-3-yl)-(Z)-2-fluoromethoxyiminoacetamido]-3-[(E)-3-[4R-hydroxy-1-(2-hydroxyethyl)-2S-hydroxymethyl-1-pyrrolidinio]-1-propen-1-yl]-3-cephem-4-carboxylate]
LD50 (in vivo; [2]): > 2000 mg/kg | MIC (Kleb. pneumoniae EK-6; Kleb. pneumoniae EK-6, agar dilution, about 10^6 CFU/ml, 18 hours, 37° C.): ≤ 0.025 µg/mL | MIC (Ser. marcescens ES-75): ≤ 0.025 µg/mL | MIC (Escher. coli NIHJ): ≤ 0.025 µg/mL | MIC ([1]; 18 hours): ≤ 0.025 µg/mL | MIC (Pseud. aeruginosa EP-01): 0.8 µg/mL (≈ 1.33 µM) | MIC (Staph. aureus 209-P): 0.2 µg/mL (≈ 0.332 µM)

CC(C(N)=O)[N+]1(C/C=C/C2=C(C(=O)[O-])N3C(=O)[C@@H](NC(=O)/C(=N\OCF)c4nsc(N)n4)[C@H]3SC2)CCCC1 (single isomer, unassigned) [Example 13-1]
LD50 (in vivo; [2]): > 2000 mg/kg | MIC (Kleb. pneumoniae EK-6; [3]): ≤ 0.025 µg/mL | MIC (Ser. marcescens ES-75; [4]): ≤ 0.025 µg/mL | MIC (Escher. coli NIHJ; [5]): ≤ 0.025 µg/mL | MIC [1, 6]: ≤ 0.025 µg/mL | MIC (Pseud. aeruginosa EP-01; [7]): 0.8 µg/mL (≈ 1.37 µM) | MIC (Staph. aureus 209-P; [8]): 0.2 µg/mL (≈ 0.343 µM)

C[C@@H](C(N)=O)[N+](C)(C)C/C=C/C1=C(C(=O)[O-])N2C(=O)[C@@H](NC(=O)/C(=N\OCF)c3nsc(N)n3)[C@H]2SC1 [Example 3-1]
LD50 (in vivo; [2]): > 2000 mg/kg | MIC (Kleb. pneumoniae EK-6; [3]): ≤ 0.025 µg/mL | MIC (Ser. marcescens ES-75; [4]): 0.05 µg/mL (≈ 0.0898 µM) | MIC (Escher. coli NIHJ; [5]): ≤ 0.025 µg/mL | MIC [1, 6]: ≤ 0.025 µg/mL | MIC (Pseud. aeruginosa EP-01; [7]): 0.8 µg/mL (≈ 1.44 µM) | MIC (Staph. aureus 209-P; [8]): 0.2 µg/mL (≈ 0.359 µM)

C[C@H](C(N)=O)[N+](C)(C)C/C=C/C1=C(C(=O)[O-])N2C(=O)[C@@H](NC(=O)/C(=N\OCF)c3nsc(N)n3)[C@H]2SC1 [Example 3-2, 7β-[2-(5-Amino-1,2,4-thiadiazol-3-yl)-(Z)-2-fluoromethoximinoacetamido]-3-[(E)-3-[(1R-carbamoylethyl)dimethylammonio]-1-propen-1-yl]-3-cephem-4-carboxylate]
LD50 (in vivo; [2]): > 2000 mg/kg | MIC (Kleb. pneumoniae EK-6; [3]): ≤ 0.025 µg/mL | MIC (Ser. marcescens ES-75; [4]): 0.1 µg/mL (≈ 0.18 µM) | MIC (Escher. coli NIHJ; [5]): ≤ 0.025 µg/mL | MIC [1, 6]: ≤ 0.025 µg/mL | MIC (Pseud. aeruginosa EP-01; [7]): 1.56 µg/mL (≈ 2.8 µM) | MIC (Staph. aureus 209-P; [8]): 0.2 µg/mL (≈ 0.359 µM)

C[N+](C)(C/C=C/C1=C(C(=O)[O-])N2C(=O)[C@@H](NC(=O)/C(=N\OCF)c3nsc(N)n3)[C@H]2SC1)[C@H](CO)C(N)=O [Example 5, 7β-[2-(5-Amino-1,2,4-thiadiazol-3-yl)-(Z)-2-fluoromethoxyiminoacetamido]-3-[(E)-3-[(1R-carbamoyl-2-hydroxyethyl)dimethylammonio]-1-propen-1-yl]-3-cephem-4-carboxylate]
LD50 (in vivo; [2]): > 2000 mg/kg | MIC (Kleb. pneumoniae EK-6; [3]): ≤ 0.025 µg/mL | MIC (Ser. marcescens ES-75; [4]): ≤ 0.025 µg/mL | MIC (Escher. coli NIHJ; [5]): ≤ 0.025 µg/mL | MIC [1, 6]: ≤ 0.025 µg/mL | MIC (Pseud. aeruginosa EP-01; [7]): 0.8 µg/mL (≈ 1.4 µM) | MIC (Staph. aureus 209-P; [8]): 0.2 µg/mL (≈ 0.349 µM)

NC(=O)C[N+]1(C/C=C/C2=C(C(=O)[O-])N3C(=O)[C@@H](NC(=O)/C(=N\OCF)c4nsc(N)n4)[C@H]3SC2)CCC(O)C1 (stereo partly drawn) [Example 9-1, 7β-[2-(5-Amino-1,2,4-thiadiazol-3-yl)-(Z)-2-fluoromethoxyiminoacetamido]-3-[(E)-3-(1-carbamoylmethyl-3-hydroxy-1-pyrrolidinio)-1-propen-1-yl]-3-cephem-4-carboxylate]
LD50 (in vivo; [2]): > 2000 mg/kg | MIC (Kleb. pneumoniae EK-6; [3]): ≤ 0.025 µg/mL | MIC (Ser. marcescens ES-75; [4]): ≤ 0.025 µg/mL | MIC (Escher. coli NIHJ; [5]): ≤ 0.025 µg/mL | MIC [1, 6]: ≤ 0.025 µg/mL | MIC (Pseud. aeruginosa EP-01; [7]): 0.8 µg/mL (≈ 1.37 µM) | MIC (Staph. aureus 209-P; [8]): 0.4 µg/mL (≈ 0.684 µM)

C[N+]1(C/C=C/C2=C(C(=O)[O-])N3C(=O)[C@@H](NC(=O)/C(=N\OCF)c4nsc(N)n4)[C@H]3SC2)CCN(S(=O)(=O)O)CC1 [Example 10, 7β-[2-(5-Amino-1,2,4-thiadiazol-3-yl)-(Z)-2-fluoromethoxyiminoacetamido]-3-[(E)-3-(1-methyl-4-sulfo-1-piperazinio)-1-propen-1-yl]-3-cephem-4-carboxylate]
LD50 (in vivo; [2]): > 2000 mg/kg | MIC (Kleb. pneumoniae EK-6; [3]): ≤ 0.025 µg/mL | MIC (Ser. marcescens ES-75; [4]): ≤ 0.025 µg/mL | MIC (Escher. coli NIHJ; [5]): ≤ 0.025 µg/mL | MIC [1, 6]: ≤ 0.025 µg/mL | MIC (Pseud. aeruginosa EP-01; [7]): 1.56 µg/mL (≈ 2.51 µM) | MIC (Staph. aureus 209-P; [8]): 0.8 µg/mL (≈ 1.29 µM)

NC(=O)C[N+]1(C/C=C/C2=C(C(=O)[O-])N3C(=O)[C@@H](NC(=O)/C(=N\OCF)c4nsc(N)n4)[C@H]3SC2)CCC(O)CC1 (stereo partly drawn) [Example 11, 7β-[2-(5-Amino-1,2,4-thiadiazol-3-yl)-(Z)-2-fluoromethoxyiminoacetamido]-3-[(E)-3-(1-carbamoylmethyl-4-hydroxy-1-piperidinio)-1-propen-1-yl]-3-cephem-4-carboxylate]
LD50 (in vivo; [2]): > 2000 mg/kg | MIC (Kleb. pneumoniae EK-6; [3]): ≤ 0.025 µg/mL | MIC (Ser. marcescens ES-75; [4]): ≤ 0.025 µg/mL | MIC (Escher. coli NIHJ; [5]): ≤ 0.025 µg/mL | MIC [1, 6]: ≤ 0.025 µg/mL | MIC (Pseud. aeruginosa EP-01; [7]): 0.8 µg/mL (≈ 1.34 µM) | MIC (Staph. aureus 209-P; [8]): 0.4 µg/mL (≈ 0.668 µM)

CC12C[N+](C/C=C/C3=C(C(=O)[O-])N4C(=O)[C@@H](NC(=O)/C(=N\OCF)c5nsc(N)n5)[C@H]4SC3)(CCO1)CCO2 [Example 12, 7β-[2-(5-Amino-1,2,4-thiadiazol-3-yl)-(Z)-2-fluoromethoxyiminoacetamido]-3-[(E)-3-(5-aza-1-methyl-2,8-dioxabicyclo[3.3.1]nona-5-io)-1-propen-1-yl]-3-cephem-4-carboxylate]
LD50 (in vivo; [2]): > 2000 mg/kg | MIC (Kleb. pneumoniae EK-6; Klebsiella pneumoniae, EK6, 18 h): ≤ 0.025 µg/mL | MIC (Ser. marcescens ES-75; [4]): 0.1 µg/mL (≈ 0.171 µM) | MIC (Escher. coli NIHJ; [5]): 0.05 µg/mL (≈ 0.0857 µM) | MIC [1, 6]: 0.05 µg/mL (≈ 0.0857 µM) | MIC (Pseud. aeruginosa EP-01; [7]): 1.56 µg/mL (≈ 2.67 µM) | MIC (Staph. aureus 209-P; [8]): 0.4 µg/mL (≈ 0.685 µM)

CC[N+](CC)(C/C=C/C1=C(C(=O)[O-])N2C(=O)[C@@H](NC(=O)/C(=N\OCF)c3nsc(N)n3)[C@H]2SC1)CC(N)=O [Example 96]
LD50 (in vivo; [2]): > 2000 mg/kg | MIC (Kleb. pneumoniae EK-6; [3]): ≤ 0.025 µg/mL | MIC (Ser. marcescens ES-75; [4]): ≤ 0.025 µg/mL | MIC (Escher. coli NIHJ; [5]): ≤ 0.025 µg/mL | MIC [1, 6]: ≤ 0.025 µg/mL | MIC (Pseud. aeruginosa EP-01; [7]): 0.8 µg/mL (≈ 1.4 µM) | MIC (Staph. aureus 209-P; [8]): 0.2 µg/mL (≈ 0.35 µM)

C[N+]1(C/C=C/C2=C(C(=O)[O-])N3C(=O)[C@@H](NC(=O)/C(=N\OCF)c4nsc(N)n4)[C@H]3SC2)CCN(C(N)=O)CC1 [Example 121, 7β-[2-(5-Amino-1,2,4-thiadiazol-3-yl)-(Z)-2-fluoromethoxyiminoacetamido]-3-[(E)-3-(1-methyl-4-carbamoyl-1-piperazinio)-1-propen-1-yl]-3-cephem-4-carboxylate]
LD50 (in vivo; [2]): > 2000 mg/kg | MIC (Kleb. pneumoniae EK-6; [3]): ≤ 0.025 µg/mL | MIC (Ser. marcescens ES-75; [4]): 0.1 µg/mL (≈ 0.171 µM) | MIC (Escher. coli NIHJ; [5]): ≤ 0.025 µg/mL | MIC [1, 6]: ≤ 0.025 µg/mL | MIC (Pseud. aeruginosa EP-01; [7]): 0.8 µg/mL (≈ 1.37 µM) | MIC (Staph. aureus 209-P; [8]): 0.2 µg/mL (≈ 0.343 µM)

C[N+](C)(C/C=C/C1=C(C(=O)[O-])N2C(=O)[C@@H](NC(=O)/C(=N\OCC#N)c3nsc(N)n3)[C@H]2SC1)[C@@H](CO)C(N)=O [Example 145, 7β-[2-(5-Amino-1,2,4-thiadiazol-3-yl)-(Z)-2-cyanomethoxyiminoacetamido]-3-[(E)-3-[(1S-carbamoyl-2-hydroxyethyl)dimethylammonio]-1-propen-1-yl]-3-cephem-4-carboxylate]
LD50 (in vivo; [2]): > 2000 mg/kg | MIC (Kleb. pneumoniae EK-6; [3]): 0.1 µg/mL (≈ 0.173 µM) | MIC (Ser. marcescens ES-75; [4]): 0.1 µg/mL (≈ 0.173 µM) | MIC (Escher. coli NIHJ; [5]): 0.2 µg/mL (≈ 0.345 µM) | MIC [1, 6]: 0.1 µg/mL (≈ 0.173 µM) | MIC (Pseud. aeruginosa EP-01; [7]): 1.56 µg/mL (≈ 2.69 µM) | MIC (Staph. aureus 209-P; [8]): 0.4 µg/mL (≈ 0.69 µM)

C[N@@+]1(C/C=C/C2=C(C(=O)[O-])N3C(=O)[C@@H](NC(=O)/C(=N\OCC#N)c4nsc(N)n4)[C@H]3SC2)C[C@H](O)C[C@@H]1CO [Example 146, 7β-[2-(5-Amino-1,2,4-thiadiazol-3-yl)-(Z)-2-cyanomethoxyiminoacetamido]-3-[(E)-3-(1-methyl-2R-hydroxymethyl-4R-hydroxy-1-pyrrolidinio)-1-propen-1-yl]-3-cephem-4-carboxylate]
LD50 (in vivo; mouse, iv): > 2000 mg/kg | MIC (Kleb. pneumoniae EK-6; [3]): 0.05 µg/mL (≈ 0.0864 µM) | MIC (Ser. marcescens ES-75; [4]): 0.05 µg/mL (≈ 0.0864 µM) | MIC (Escher. coli NIHJ; [5]): 0.1 µg/mL (≈ 0.173 µM) | MIC [1, 6]: 0.05 µg/mL (≈ 0.0864 µM) | MIC (Pseud. aeruginosa EP-01; [7]): 1.56 µg/mL (≈ 2.7 µM) | MIC (Staph. aureus 209-P; [8]): 0.4 µg/mL (≈ 0.691 µM)
